Data reported in publication PMC12055641, “The Study of Antistaphylococcal Potential of Omiganan and Retro-Omiganan Under Flow Conditions” (Probiotics and Antimicrobial Proteins, 2024).
Read-outs that look alike come from different tables or passages of the source. No end group written: not given here.

Key:
[1] = system: S. aureus ATCC 33591 (MRSA) biofilm; details: ATCC 33591, 24 h
Excerpt: (§1) Clinical S. aureus strains were collected from patients with atopic dermatitis during their visits to the Outpatient Clinic and hospitalization in the Department of Dermatology, Venereology and Allergology at Medical University of Gdańsk (following the approval from the ethics committee, Approval Number NKBBN/242–477/2014). Reference strains of S. aureus ATCC 25923, S. aureus ATCC 33591, S. aureus ATCC 9144, and S. aureus ATCC 12598 were obtained from the American Type Culture Collection. All the strains were stored at − 80 °C in Roti®-Store cryo vials (Carl Roth GmbH, Karlsruhe, Germany) and before the tests were transferred into fresh Mueller–Hinton Medium (BioMaxima, Lublin, Poland) and incubated for 24 h at 37 °C. Subsequently, each bacterial inoculum was seeded on Mueller–Hinton agar plates (BioMaxima) and incubated again for 24 h. The cultures prepared in this way were used in further antimicrobial assays. Minimum inhibitory concentrations (MICs) were determined according to the Clinical and Laboratory Standards Institute recommendations. […] The experiments were conducted on 96-well microtiter plates, with a final volume of 100 μL. Additionally, in the case of daptomycin, the medium was supplemented with Ca^2+ (50 mg/L). Cell densities were adjusted spectrophotometrically (Multiskan™ GO Microplate Spectrophotometer, Thermo Scientific) at 600 nm. The MICs were taken as the lowest drug concentration at which a visible growth of the microorganisms was inhibited. Minimum biofilm eliminating concentrations (MBECs) were determined on 96-well flat-bottomed microtiter polystyrene plates with resazurin (7-hydroxy-3H-phenoxazin-3-one 10-oxide sodium salt) as a cell viability reagent. To do this, the plates were filled with 100 μL of the initial inoculums of bacteria (0.5 × 10^7 CFU/mL) in the Mueller–Hinton broth and incubated for 24 h at 37 °C. […] After 24 h of incubation, 20 μL of resazurin (4 mg/mL) was added to each well and the MBEC values were read. Minimum biofilm inhibitory concentrations (MBICs) were also determined on 96-well flat-bottomed microtiter polystyrene plates as described previously. To do this, 50 μL of the compounds in the concentration range, diluted MHB, were prepared. Subsequently, the 50 μL of the staphylococcal inoculums were added to reach the same density of bacteria as that in the MBEC assay. After 24 h of incubation at 37 °C, the wells were rinsed three times with PBS and the fresh medium (100 μL) with resazurin (0.6 mg/mL) was added. Then, after 1 h of incubation, MBICs were read. […] All experiments were conducted in triplicate.

[2] = system: S. aureus clinical strain 015N (MRSA) biofilm; details: clinical strain 015N biofilm, 24 h
Excerpt: as §1

[3] = system: S. aureus clinical strain 004N (MRSA); details: 24 h
Excerpt: as §1

[4] = system: S. aureus clinical strain 043SC (MRSA) biofilm; details: clinical strain 043SC biofilm, 24 h
Excerpt: as §1

[5] = system: S. aureus ATCC 33591 (MRSA); details: ATCC 33591, 24 h
Excerpt: as §1

[6] = system: S. aureus clinical strain 043SC (MRSA); details: 24 h
Excerpt: as §1

[7] = system: reference and clinical strains of staphylococci (S. aureus); details: 24 h
Excerpt: as §1

[8] = system: S. aureus clinical strain 015N (MRSA); details: 24 h
Excerpt: as §1

[9] = system: S. aureus clinical strain 051N (MRSA) biofilm; details: clinical strain 051N biofilm, 24 h
Excerpt: as §1

[10] = system: S. aureus clinical strain 004N (MRSA) biofilm; details: clinical strain 004N biofilm, 24 h
Excerpt: as §1

[11] = system: S. aureus clinical strain 051N (MRSA); details: 24 h
Excerpt: as §1

[12] = system: biofilm of reference and clinical strains of staphylococci (S. aureus); details: 24 h
Excerpt: as §1

[13] = system: human keratinocytes (HaCaT); type: cell-based; details: 24 h
Description: To evaluate the cytotoxicity of the peptides (IC50), the classic MTT assay on 96-well plates was performed for human keratinocytes (HaCaT) which were acquired from the ATCC. The assay utilizes colorimetric determination of the cell metabolic activity, and the color intensity reflects the number of live cells that can be measured spectrophotometrically. […] DMSO was added to the control cells at a final concentration of 1.0% (v/v), which was related to the maximum concentration of the solvent compounds used in the experiment. After 24 h of incubation at 37 °C (humidified 5% CO2 incubator) with the peptides, a medium containing 1 mg/mL of MTT was added to the wells up to a final concentration of 0.5 mg/mL. Subsequently, the plates were incubated at 37 °C for 4 h. Then, the medium was aspirated, and the formazan product was solubilized with DMSO. The background absorbance at 630 nm was subtracted from that at 570 nm for each well (Epoch, BioTek Instruments, USA). Six replicates were conducted for each concentration. All experiments were repeated at least twice and the resulting IC50 values were calculated with GraFit 7 software (v. 7.0, Erithacus, Berkley, CA, USA).

[14] = system: S. aureus clinical strain 030N; parameters: method as in earlier work; details: clinical isolate 030N, nasal swab; cited from earlier work
[15] = system: S. aureus clinical strain 051N (MRSA); parameters: method as in earlier work; details: clinical isolate 051N (MRSA), nasal swab; cited from earlier work
[16] = system: S. aureus clinical strain 005S; parameters: method as in earlier work; details: clinical isolate 005S, skin; cited from earlier work
[17] = system: S. aureus clinical strain 015N (MRSA); parameters: method as in earlier work; details: clinical isolate 015N (MRSA), nasal swab; cited from earlier work
[18] = system: S. aureus clinical strain 031S; parameters: method as in earlier work; details: clinical isolate 031S, skin; cited from earlier work
[19] = system: S. aureus clinical strain 009S; parameters: method as in earlier work; details: clinical isolate 009S, skin; cited from earlier work
[20] = system: S. aureus clinical strain 060S; parameters: method as in earlier work; details: clinical isolate 060S, skin; cited from earlier work
[21] = system: S. aureus clinical strain 004N (MRSA); parameters: method as in earlier work; details: clinical isolate 004N (MRSA), nasal swab; cited from earlier work
[22] = system: S. aureus clinical strain 043SC (MRSA); parameters: method as in earlier work; details: clinical isolate 043SC (MRSA), skin of patient with furuncle folliculitis; cited from earlier work
[23] = system: S. aureus ATCC 33591 (MRSA); assay: microbe, parasite or virus in culture
Excerpt: as §1
(§2) Formation of the biofilm inside the PDMS flow chambers was performed using three peristaltic pumps working simultaneously (LP-pump, Kamush, Lipopharm, Poland) and sterile Tygon® 3350 silicone hoses (2.4 × 0.8 × 0.8 mm) with a length of 30 and 50 cm for inlet and outlet, respectively. Bacterial suspensions were prepared (0.5 × 10^7 CFU/mL) in sterile 50-mL test tubes, which were placed in a heating block at 37 °C. Before experiments, all channels were assessed for tightness and sterilized using a 70% 2-propanol solution (10 min, flow rate 1 mL/min) and rinsed with sterile PBS solution (10 min, flow 0.1 mL/min). The formation of biofilm inside the channels was divided into three stages: (1) adhesion—at this stage S. aureus suspensions were passed through the channels for 4 h at a flow rate of 0.1 mL/min; (2) rinsing—the previously used hoses were replaced with new sterile ones, and the channels were rinsed with sterile PBS solution for 10 min at a flow rate of 0.1 mL/min; (3) biofilm growth—after flushing the channels, the silicone hoses were placed in tubes with MHB medium, which was passed through the channels for 24 h at a flow rate of 0.1 mL/min. All experiments included growth and sterility controls.
(§3) This assay was conducted also on the S. aureus ATCC 25923 and S. aureus 33,591 (MRSA) strains.

S. aureus ATCC 25923 = assay: microbe, parasite or virus in culture
Excerpt: as §1, §2, §3

KRRWPWWPWRLI-NH2 [Retro-omiganan AcO^−]
23.66 µg/mL: IC50 [13]
16 µg/mL: MBIC [2] | MIC [3] | MBIC [4] | MIC [5] | MIC [6] | MIC [8] | MBIC [10] | MIC [11]
64 µg/mL: MBEC [9]
32 µg/mL: MBEC [1] | MBIC [1] | MBEC [2] | MBEC [4] | MBIC [9] | MBEC [10]
32.00 µg/mL: mean MBEC (initial values) [12]
10.00 µg/mL: mean MIC (initial values) [7]

C/C(=C\C(=O)OCCCCCCCCC(=O)O)C[C@@H]1OC[C@H](C[C@@H]2O[C@H]2[C@@H](C)[C@H](C)O)[C@@H](O)[C@H]1O [Mupirocin]
0.5 µg/mL: Antimicrobial susceptibility (MIC) [22]
32 µg/mL: Antimicrobial susceptibility (MIC) [18]
> 512 µg/mL: Antimicrobial susceptibility (MIC) [16] | Antimicrobial susceptibility (MIC) [19] | Antimicrobial susceptibility (MIC) [20]
≤ 0.25 µg/mL: MIC ([23]; S. aureus ATCC 33591 (MRSA) biofilm treated under flow with Retro-Omiganan (half MBEC) for 24 h) | MIC ([23]; S. aureus ATCC 33591 (MRSA) biofilm treated under flow with Retro-Omiganan (half MBEC) for 48 h) | MIC ([23]; S. aureus ATCC 33591 (MRSA) biofilm treated under flow with Retro-Omiganan (half MBEC) for 72 h) | MIC ([23]; Staphylococcus aureus, 0 h) | MIC ([23]; Staphylococcus aureus, 24 h) | MIC ([23]; Staphylococcus aureus, 48 h) | MIC ([23]; Staphylococcus aureus, 72 h) | MIC (S. aureus ATCC 25923; S. aureus 25923 biofilm treated under flow with Retro-Omiganan (half MBEC) for 24 h) | MIC (S. aureus ATCC 25923; S. aureus 25923 biofilm treated under flow with Retro-Omiganan (half MBEC) for 48 h) | MIC (S. aureus ATCC 25923; S. aureus 25923 biofilm treated under flow with Retro-Omiganan (half MBEC) for 72 h) | MIC (S. aureus ATCC 25923; Staphylococcus aureus, ATCC25923, 0 h) | MIC (S. aureus ATCC 25923; Staphylococcus aureus, ATCC25923, 24 h) | MIC (S. aureus ATCC 25923; Staphylococcus aureus, ATCC25923, 48 h) | MIC (S. aureus ATCC 25923; Staphylococcus aureus, ATCC25923, 72 h)
0.125 µg/mL: Antimicrobial susceptibility (MIC) [21]
0.25 µg/mL: Antimicrobial susceptibility (MIC) [14] | Antimicrobial susceptibility (MIC) [15] | Antimicrobial susceptibility (MIC) [17]
